Drawing on ChEMBL document CHEMBL1139064, “Carbonic anhydrase activators: an activation study of the human mitochondrial isoforms VA and VB with amino acids and amines” (Bioorg Med Chem Lett, 2007), this text covers KA for 15 compounds.

Experiment [1] concerns the target Carbonic anhydrase 5A, mitochondrial (Homo sapiens) (UniProt P35218). Put plainly: Activation of human recombinant carbonic anhydrase 5A by stopped-flow CO2 hydrase method.
Experiment [2] deals with Carbonic anhydrase 5B, mitochondrial (Homo sapiens) (UniProt Q9Y2D0). Put plainly: Activation of human recombinant carbonic anhydrase 5B by stopped-flow CO2 hydrase method.
Chain of Carbonic anhydrase 5B, mitochondrial (Homo sapiens) (Q9Y2D0 whole entry): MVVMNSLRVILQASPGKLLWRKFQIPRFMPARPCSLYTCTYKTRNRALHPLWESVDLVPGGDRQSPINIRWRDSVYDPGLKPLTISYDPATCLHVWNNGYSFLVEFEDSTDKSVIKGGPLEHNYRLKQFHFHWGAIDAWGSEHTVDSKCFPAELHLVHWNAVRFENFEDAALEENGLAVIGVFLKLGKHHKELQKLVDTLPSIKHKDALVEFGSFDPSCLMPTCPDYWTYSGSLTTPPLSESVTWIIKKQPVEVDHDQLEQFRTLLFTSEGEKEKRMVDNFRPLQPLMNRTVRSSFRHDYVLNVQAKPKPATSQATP

Chain of Carbonic anhydrase 5A, mitochondrial (Homo sapiens) (P35218 whole entry): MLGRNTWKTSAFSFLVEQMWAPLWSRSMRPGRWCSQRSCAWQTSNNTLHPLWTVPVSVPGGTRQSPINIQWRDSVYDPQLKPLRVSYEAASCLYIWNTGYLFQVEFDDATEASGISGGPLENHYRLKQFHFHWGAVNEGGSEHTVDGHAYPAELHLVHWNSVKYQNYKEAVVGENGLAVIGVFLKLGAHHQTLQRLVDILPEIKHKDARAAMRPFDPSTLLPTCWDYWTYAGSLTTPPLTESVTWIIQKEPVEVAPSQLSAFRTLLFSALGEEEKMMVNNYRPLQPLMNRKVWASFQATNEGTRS

`N[C@@H](Cc1ccc(O)cc1)C(=O)O`: the KA in experiment [1] worked out at 2.45 µM; in experiment [2], 0.044 µM.
Consider `N[C@@H](Cc1c[nH]c2ccccc12)C(=O)O`, for which the KA is 1.13 µM in experiment [1] and 0.89 µM in experiment [2].
The matching figures for `NCCN1CCOCC1`: 0.089 µM and 1.15 µM.
For the compound `N[C@H](Cc1c[nH]cn1)C(=O)O`, the KA in experiment [1] is 0.12 µM; in experiment [2], 4.38 µM.
The matching figures for `NCc1ccccn1`: 23.6 µM and 0.24 µM.
The corresponding values for `N[C@@H](Cc1c[nH]cn1)C(=O)O` are 1.34 µM and 0.97 µM.
The matching figures for `N[C@H](Cc1c[nH]c2ccccc12)C(=O)O`: 1.24 µM and 1.35 µM.
Take `NCCc1c[nH]cn1`: the KA in experiment [1] worked out at 0.01 µM; in experiment [2], 3.52 µM.
The corresponding values for `NCCN1CCNCC1` are 6.04 µM and 0.91 µM.
The corresponding values for `NCCc1ccccn1` are 7.62 µM and 0.094 µM.
For the compound `N[C@@H](Cc1ccc(O)c(O)c1)C(=O)O`, the KA in experiment [1] came out at 0.036 µM; in experiment [2], 0.063 µM.
The corresponding values for `Nc1ccc(C[C@H](N)C(=O)O)cc1` are 2.76 µM and 2.17 µM.
Take `N[C@H](Cc1ccc(O)c(O)c1)C(=O)O`: the KA is 4.59 µM in experiment [1] and 3.71 µM in experiment [2].
The corresponding values for `NCCc1ccc(O)c(O)c1` are 0.13 µM and 7.85 µM.
The corresponding values for `NCCc1c[nH]c2ccc(O)cc12` are 6.33 µM and 0.11 µM.
